Assay: solubility in rubber mixtures
Format: physicochemical
Conditions: in particular for vehicle tires and other technical rubber articles

- solubility in rubber mixtures: very good
Structure (SMILES): CC(C)CC(C)Nc1ccc2[nH]c3ccccc3c2c1 (stereo not shown) [compound according to the invention, N-(1,3-dimethylbutyl)-9H-carbazol-3-amine]

From patent publication US20250100969A1, “COMPOUND, RUBBER BLEND CONTAINING THE COMPOUND, VEHICLE TIRE COMPRISING THE RUBBER BLEND IN AT LEAST ONE COMPONENT, PROCESS FOR PRODUCING THE COMPOUND, AND USE OF THE COMPOUND AS AN AGE RESISTOR AND/OR ANTIOXIDANT” (Continental Reifen Deutschland GmbH, priority 2021, published 2025)
